Literature values in patent US20200113824A1, “DISPENSING CAP CONTAINING A SOLUBILISATE OF A […] ACTIVE AGENT OR DIETARY SUPPLEMENT” (priority 2017, published 2020).

Columns and labels:
[1] = biological target: P-glycoprotein (Homo sapiens, UniProt P08183)
[2] = biological target: human CYP3A4 (Homo sapiens, UniProt P08684)
[3] = system: murine gut microbiota; conditions: promoting obesity and inflammatory bowel diseases

human CYP3A4, sequence (P08684 whole entry): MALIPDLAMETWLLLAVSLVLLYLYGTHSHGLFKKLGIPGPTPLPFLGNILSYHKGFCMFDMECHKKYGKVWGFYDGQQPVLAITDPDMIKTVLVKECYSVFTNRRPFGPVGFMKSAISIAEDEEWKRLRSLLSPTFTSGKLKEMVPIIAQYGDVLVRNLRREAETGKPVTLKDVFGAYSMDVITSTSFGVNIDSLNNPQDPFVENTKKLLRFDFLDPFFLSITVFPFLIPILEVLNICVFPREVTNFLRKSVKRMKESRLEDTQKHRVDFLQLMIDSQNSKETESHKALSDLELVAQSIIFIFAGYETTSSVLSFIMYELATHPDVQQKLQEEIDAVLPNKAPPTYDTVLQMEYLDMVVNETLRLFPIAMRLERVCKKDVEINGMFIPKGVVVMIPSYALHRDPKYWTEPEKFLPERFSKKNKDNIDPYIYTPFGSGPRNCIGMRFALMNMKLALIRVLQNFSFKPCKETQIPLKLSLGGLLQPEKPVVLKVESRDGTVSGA
P-glycoprotein, sequence (P08183 whole entry): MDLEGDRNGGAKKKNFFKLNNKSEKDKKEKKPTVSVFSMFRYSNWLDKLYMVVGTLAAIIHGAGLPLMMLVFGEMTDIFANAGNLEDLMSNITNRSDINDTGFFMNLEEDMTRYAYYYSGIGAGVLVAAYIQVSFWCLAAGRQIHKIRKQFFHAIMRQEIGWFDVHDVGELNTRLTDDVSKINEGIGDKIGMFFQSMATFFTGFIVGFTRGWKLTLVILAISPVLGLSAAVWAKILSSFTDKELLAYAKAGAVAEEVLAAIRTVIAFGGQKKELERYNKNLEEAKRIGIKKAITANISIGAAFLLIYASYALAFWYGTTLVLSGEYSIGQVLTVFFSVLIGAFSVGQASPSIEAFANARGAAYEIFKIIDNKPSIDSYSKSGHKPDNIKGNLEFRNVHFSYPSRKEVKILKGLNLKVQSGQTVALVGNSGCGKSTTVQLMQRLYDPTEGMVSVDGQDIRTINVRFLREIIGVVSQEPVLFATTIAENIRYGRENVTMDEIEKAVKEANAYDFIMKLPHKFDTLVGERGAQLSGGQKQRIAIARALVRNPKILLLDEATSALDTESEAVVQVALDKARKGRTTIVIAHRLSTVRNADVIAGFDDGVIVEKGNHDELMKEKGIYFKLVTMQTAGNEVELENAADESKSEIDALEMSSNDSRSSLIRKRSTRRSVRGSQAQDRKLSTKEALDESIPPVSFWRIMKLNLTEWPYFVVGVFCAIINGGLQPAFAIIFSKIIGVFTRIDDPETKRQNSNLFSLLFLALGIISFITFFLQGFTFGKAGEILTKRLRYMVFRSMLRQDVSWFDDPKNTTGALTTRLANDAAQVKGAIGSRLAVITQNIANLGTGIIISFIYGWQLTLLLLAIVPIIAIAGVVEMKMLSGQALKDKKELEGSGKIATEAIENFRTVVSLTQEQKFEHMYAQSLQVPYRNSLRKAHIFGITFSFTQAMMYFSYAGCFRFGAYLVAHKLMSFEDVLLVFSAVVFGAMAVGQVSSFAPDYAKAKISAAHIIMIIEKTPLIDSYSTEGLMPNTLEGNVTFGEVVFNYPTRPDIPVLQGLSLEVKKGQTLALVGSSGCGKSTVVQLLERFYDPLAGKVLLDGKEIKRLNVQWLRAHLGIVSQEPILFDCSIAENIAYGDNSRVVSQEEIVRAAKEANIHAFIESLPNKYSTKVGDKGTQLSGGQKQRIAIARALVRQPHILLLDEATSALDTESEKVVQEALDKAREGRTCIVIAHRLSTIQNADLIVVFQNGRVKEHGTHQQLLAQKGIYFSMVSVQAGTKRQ

Molecule	inhibition of P-glycoprotein [1]	inhibition of human CYP3A4 [2]	effects on murine gut microbiota [3]
O=C(C=CC=Cc1ccc2c(c1)OCO2)N1CCCCC1 [Piperine, 1-[5-(1,3-benzodioxol-5-yl)-1-oxo-2,4-pentadienyl]piperidine]	inhibit	inhibit	
Polysorbate-80			detrimental effects
